In ChEMBL document CHEMBL4219093, “New 4-aryl-1,3,2-oxathiazolylium-5-olates: Chemical synthesis and photochemical stability of a novel series of S-nitrosothiols” (Bioorg Med Chem Lett, 2018):

Columns and labels:
Type in all cases: physicochemical
[1] = Photochemical stability of the compound in EtOH/H2O assessed as ring opening by measuring compound decomposition at 75 mM measured in presence of ambient daylight conditions after 40 mins by UV-vis spectrophotometric method; conditions: for degraded at 40 min: EtOH/H2O, read-out: Drug degradation
[2] = Drug metabolism assessed as ring opening in EtOH/H2O at 75 mM measured after 40 mins under dark condition by UV-vis spectrophotometric method; conditions: for Drug metabolism: 40 min, 75000 µM; for degraded at 40 min: EtOH/H2O, read-out: Drug metabolism
[3] = Photochemical stability of the compound assessed as compound decomposition in phosphate buffer at pH 7.4 exposed to daylight at 0.4 mM measured over 3 hrs by UV-Vis absorbance method; conditions: read-out: Drug degradation

Drug metabolism [2] | degraded at 40 min [2] | SMILES | also measured
Metabolite_Detected |  | [O-]c1on[s+]c1-c1ccc(Cl)cc1 | degraded at 40 min [1]: 42%
Metabolite_Detected |  | [O-]c1on[s+]c1-c1ccccc1Cl | 
 | 40 to 80% | [O-]c1on[s+]c1-c1cccc(Cl)c1 | 
 | 48% | [O-]c1on[s+]c1-c1ccccc1 | degraded at 3 h, 400 µM [3]: 7%

Continued, compound first:

SMILES | Drug metabolism [2] | degraded at 40 min [2] | also measured
[O-]c1on[s+]c1-c1ccc(F)cc1F | Metabolite_Detected |  | Stability ([1]; 40 min, 75000 µM): Stable
[O-]c1on[s+]c1-c1ccc(F)cc1 |  | 40 to 80% | degraded at 40 min [1]: 76%
[O-]c1on[s+]c1-c1cc(F)cc(F)c1 |  | 40 to 80% | 
